Data: US9233979B2, “Compounds that are ERK inhibitors” (Merck Sharp & Dohme Corp., priority 2012, dated 2016)

Target: phosphorylated active hERK2 enzyme (Homo sapiens (Human), UniProt P28482)
Experiment: Active Human ERK2 (hERK2) Activity Assay (IMAP-FP)
Assay type: biochemical
Details: Table 6, 0.5 nM hERK2, 30 μM ATP, 10 point titration, read-out: AERK2 IC50
Method in brief: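 IMAP detection beads in buffer with 24 mM NaCl stopped the reaction, and fluorescence polarization was read after 60 min binding.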

phosphorylated active hERK2 enzyme, sequence (P28482 whole entry): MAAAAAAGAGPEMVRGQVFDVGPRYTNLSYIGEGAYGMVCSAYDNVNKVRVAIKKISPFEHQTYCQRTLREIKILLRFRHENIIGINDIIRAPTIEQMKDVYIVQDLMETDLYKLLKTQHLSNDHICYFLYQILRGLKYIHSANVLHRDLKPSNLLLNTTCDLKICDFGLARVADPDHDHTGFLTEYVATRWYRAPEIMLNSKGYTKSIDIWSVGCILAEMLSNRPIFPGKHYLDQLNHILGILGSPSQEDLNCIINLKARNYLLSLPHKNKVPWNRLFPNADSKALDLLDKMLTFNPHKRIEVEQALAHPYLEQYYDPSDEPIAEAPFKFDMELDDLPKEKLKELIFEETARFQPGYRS

| Compound | IC50 [nM] |
| --- | --- |
| C[C@@H](NC(=O)Nc1cc2[nH]nc(NC(=O)CC3CCCCC3)c2cn1)c1ccccc1 [Example 203, 2-cyclohexyl-N-[6-({[(1R)-1-phenylethyl]-carbamoyl}amino)-1H-pyrazolo[4,3-c]pyridin-3-yl]-acetamide] | 3.6 |
| C[C@@H](NC(=O)Nc1cc2[nH]nc(NC(=O)C3CCCCC3)c2cn1)c1ccccc1 [Example 204, N-[6-({[(1R)-1-phenylethyl]-carbamoyl}amino)-1H-pyrazolo[4,3-c]pyridin-3-yl]-cyclohexane-carboxamide] | 5.9 |
| C[C@@H](NC(=O)Nc1cc2[nH]nc(NC(=O)C3CCCC3)c2cn1)c1ccccc1 [Example 205, N-[6-({[(1R)-1-phenylethyl]-carbamoyl}amino)-1H-pyrazolo[4,3-c]pyridin-3-yl]-cyclopentane-carboxamide] | 1.2 |
| C[C@@H](NC(=O)Nc1cc2[nH]nc(NC(=O)Cc3ccc(F)cc3)c2cn1)c1ccccc1 [Example 206, 2-(4-fluorophenyl)-N-[6-({[(1R)-1-phenylethyl]-carbamoyl}amino)-1H-pyrazolo[4,3-c]pyridin-3-yl]-acetamide] | 0.5 |
| C[C@@H](NC(=O)Nc1cc2[nH]nc(NC(=O)c3ccco3)c2cn1)c1ccccc1 [Example 207, N-[6-({[(1R)-1-phenylethyl]-carbamoyl}amino)-1H-pyrazolo[4,3-c]pyridin-3-yl]-furan-2-carboxamide] | 4.6 |
| C[C@@H](NC(=O)Nc1cc2[nH]nc(NC(=O)CN(C)C)c2cn1)c1ccccc1 [Example 208] | 27.8 |
| CC(C)CC(=O)Nc1n[nH]c2cc(NC(=O)N[C@H](C)c3ccccc3)ncc12 [Example 209, 3-methyl-N-[6-({[(1R)-1-phenylethyl]-carbamoyl}amino)-1H-pyrazolo[4,3-c]pyridin-3-yl]-butanamide] | 1.6 |
| C[C@@H](NC(=O)Nc1cc2[nH]nc(NC(=O)CC3CCCC3)c2cn1)c1ccccc1 [Example 210, 2-cyclopentyl-N-[6-({[(1R)-1-phenylethyl]-carbamoyl}amino)-1H-pyrazolo[4,3-c]pyridin-3-yl]-acetamide] | 2.8 |
| C[C@@H](NC(=O)Nc1cc2[nH]nc(NC(=O)c3cccnc3)c2cn1)c1ccccc1 [Example 211, N-[6-({[(1R)-1-phenylethyl]-carbamoyl}amino)-1H-pyrazolo[4,3-c]pyridin-3-yl]-pyridine-3-carboxamide] | 3.1 |
| C[C@@H](NC(=O)Nc1cc2[nH]nc(NC(=O)c3ccccn3)c2cn1)c1ccccc1 [Example 212, N-[6-({[(1R)-1-phenylethyl]-carbamoyl}amino)-1H-pyrazolo[4,3-c]pyridin-3-yl]-pyridine-2-carboxamide] | 11.7 |
| C[C@@H](NC(=O)Nc1cc2[nH]nc(NCC3CCC3)c2cn1)c1ccccc1 [Example 213, 1-{3-[(cyclobutylmethyl)amino]-1H-pyrazolo[4,3-c]-pyridin-6-yl}-3-[(1R)-1-phenylethyl]urea] | 2.2 |
| C[C@@H](NC(=O)Nc1cc2[nH]nc(NC(=O)c3ccncc3)c2cn1)c1ccccc1 [Example 214, N-[6-({[(1R)-1-phenylethyl]-carbamoyl}amino)-1H-pyrazolo[4,3-c]pyridin-3-yl]-pyridine-4-carboxamide] | 2.9 |
| C[C@@H](NC(=O)Nc1cc2[nH]nc(NC(=O)C(C)(C)C)c2cn1)c1ccccc1 [Example 215, 2,2-dimethyl-N-[6-({[(1R)-1-phenylethyl]-carbamoyl}amino)-1H-pyrazolo[4,3-c]pyridin-3-yl]-propanamide] | 3.9 |
| C[C@@H](NC(=O)Nc1cc2[nH]nc(NC3CC(N)C3)c2cn1)c1ccccc1 (stereo partly drawn) [Example 216, 1-{3-[(3-amino-cyclobutyl)amino]-1H-pyrazolo[4,3-c]pyridin-6-yl}-3-[(1R)-1-phenylethyl]urea] | 12 |
| C[C@@H](NC(=O)Nc1cc2[nH]nc(NC(=O)OC(C)(C)C)c2cn1)c1ccccc1 [Example 217, tert-butyl [6-({[(1R)-1-phenylethyl}-carbamoyl}amino)-1H-pyrazolo[4,3-c]pyridin-3-yl}-carbamate] | 47.7 |
| CC(C)NC(=O)Nc1n[nH]c2cc(NC(=O)N[C@H](C)c3ccccc3)ncc12 [Example 218, 1-(1-methylethyl)-3-[6-({[(1R)-1-phenylethyl]-carbamoyl}amino)-1H-pyrazolo[4,3-c]pyridin-3-yl]urea] | 25.1 |
| CC(C)COC(=O)Nc1n[nH]c2cc(NC(=O)N[C@H](C)c3ccccc3)ncc12 [Example 219, 2-methylpropyl [6-({[(1R)-1-phenylethyl}-carbamoyl}amino)-1H-pyrazolo[4,3-c]pyridin-3-yl]-carbamate] | 32.5 |
| COC(=O)Nc1n[nH]c2cc(NC(=O)N[C@H](C)c3ccccc3)ncc12 [Example 220, (R)-methyl (6-(3-(1-phenylethyl)ureido)-1H-pyrazolo[4,3-c]pyridin-3-yl)carbamate] | 354 |
| COCCOC(=O)Nc1n[nH]c2cc(NC(=O)N[C@H](C)c3ccccc3)ncc12 [Example 221, 2-methoxyethyl [6-({[(1R)-1-phenyl-ethyl]carbamoyl}-amino)-1H-pyrazolo[4,3-c]-pyridin-3-yl]-carbamate] | 6.6 |

| Compound | IC50 [nM] |
| --- | --- |
| C[C@@H](NC(=O)Nc1cc2[nH]nc(NC(=O)Oc3ccccc3)c2cn1)c1ccccc1 [Example 222, phenyl[6-({[(1R)-1-phenylethyl]-carbamoyl}amino)-1H-pyrazolo[4,3-c]pyridin-3-yl]-carbamate] | 3.6 |
| CC(C)OC(=O)Nc1n[nH]c2cc(NC(=O)N[C@H](C)c3ccccc3)ncc12 [Example 223, 1-methylethyl[6-({[(1R)-1-phenylethyl]-carbamoyl}amino)-1H-pyrazolo[4,3-c]pyridin-3-yl]-carbamate] | 12.4 |
| C[C@@H](NC(=O)Nc1cc2[nH]nc(NC(=O)OCC(C)(C)C)c2cn1)c1ccccc1 [Example 224, 2,2-dimethylpropyl [6-({[(1R)-1-phenylethyl]-carbamoyl}amino)-1H-pyrazolo[4,3-c]pyridin-3-yl]-carbamate] | 355 |
| C[C@@H](NC(=O)Nc1cc2[nH]nc(NC(=O)OCc3ccccc3)c2cn1)c1ccccc1 [Example 225, benzyl [6-({[(1R)-1-phenylethyl]-carbamoyl}amino)-1H-pyrazolo[4,3-c]pyridin-3-yl]-carbamate] | 39.8 |
| CCNc1n[nH]c2cc(NC(=O)NCC(C)c3ccccc3)ncc12 (centres unmarked) [Example 226, 1-[3-(ethylamino)-1H-pyrazolo[4,3-c]pyridin-6-yl]-3-(2-phenylpropyl)-urea] | 17 |
| CCNc1n[nH]c2cc(NC(=O)NCc3c(C)cccc3Cl)ncc12 [Example 227, 1-(2-chloro-6-methylbenzyl)-3-[3-(ethylamino)-1H-pyrazolo[4,3-c]pyridin-6-yl]urea] | 11.3 |
| CCNc1n[nH]c2cc(NC(=O)NCc3ccccc3OC(F)F)ncc12 [Example 228, 1-[2-(difluoro-methoxy)benzyl]-3-[3-(ethylamino)-1H-pyrazolo[4,3-c]pyridin-6-yl]urea] | 3.5 |
| CCNc1n[nH]c2cc(NC(=O)N[C@H](C)C3CCCCC3)ncc12 [Example 230, 1-[(1R)-1-cyclohexylethyl]-3-[3-(ethylamino)-1H-pyrazolo[4,3-c]pyridin-6-yl]urea] | 11.7 |
| CCNc1n[nH]c2cc(NC(=O)NCc3cnsn3)ncc12 [Example 231, 1-[3-(ethylamino)-1H-pyrazolo[4,3-c]pyridin-6-yl]-3-(1,2,5-thiadiazol-3-ylmethyl)urea] | 57 |
| CCNc1n[nH]c2cc(NC(=O)NC3CNc4ccccc4C3)ncc12 (centres unmarked) [Example 232, 1-[3-(ethylamino)-1H-pyrazolo[4,3-c]pyridin-6-yl]-3-(1,2,3,4-tetrahydro-quinolin-3-yl)urea] | 18.6 |
| CCNc1n[nH]c2cc(NC(=O)NC3COc4ccccc4C3)ncc12 (centres unmarked) [Example 233, 1-(3,4-dihydro-2H-chromen-3-yl)-3-[3-(ethylamino)-1H-pyrazolo[4,3-c]pyridin-6-yl]urea] | 28 |
| CCNc1n[nH]c2cc(NC(=O)N[C@@H]3CCOc4ccccc43)ncc12 [Example 234, 1-[(4R)-3,4-dihydro-2H-chromen-4-yl]-3-[3-(ethylamino)-1H-pyrazolo[4,3-c]pyridin-6-yl]urea] | 52 |
| CCNc1n[nH]c2cc(NC(=O)NC3COc4ccccc43)ncc12 (centres unmarked) [Example 235, 1-(2,3-dihydro-1-benzofuran-3-yl)-3-[3-(ethylamino)-1H-pyrazolo[4,3-c]pyridin-6-yl]urea] | 334 |
| CCNc1n[nH]c2cc(NC(=O)N[C@@H](c3ccccc3)C3(O)CCCC3)ncc12 [Example 236, 1-[3-(ethylamino)-1H-pyrazolo[4,3-c]pyridin-6-yl]-3-[(S)-(1-hydroxy-cyclopentyl)-(phenyl)methyl]-urea] | 0.7 |
| CCNc1n[nH]c2cc(NC(=O)NC3CCCC3c3ccccc3)ncc12 (centres unmarked) [Example 237, 1-[3-(ethylamino)-1H-pyrazolo[4,3-c]pyridin-6-yl]-3-(2-phenyl-cyclopentyl)urea] | 8.3 |
| CCNc1n[nH]c2cc(NC(=O)NCc3cccnc3OCC)ncc12 [Example 238, 1-[(2-ethoxy-pyridin-3-yl)-methyl]-3-[3-(ethylamino)-1H-pyrazolo[4,3-c]pyridin-6-yl]urea] | 9.6 |
| CCNc1n[nH]c2cc(NC(=O)N[C@@H](CN(C)C)c3ccccc3)ncc12 [Example 239, 1-[(1R)-2-(dimethylamino)-1-phenylethyl]-3-[3-(ethylamino)-1H-pyrazolo[4,3-c]pyridin-6-yl]urea] | 27.4 |
| CCNc1n[nH]c2cc(NC(=O)NCc3ccc(F)c(Cl)c3)ncc12 [Example 240, 1-(3-chloro-4-fluorobenzyl)-3-[3-(ethylamino)-1H-pyrazolo[4,3-c]-pyridin-6-yl]urea] | 14.7 |
| CCNc1n[nH]c2cc(NC(=O)NCc3cccc(F)c3)ncc12 [Example 241, 1-[3-(ethylamino)-1H-pyrazolo[4,3-c]pyridin-6-yl]-3-(3-fluorobenzyl)-urea] | 11.8 |
